Results reported in PMC12048343, “Discovery of a small molecule secreted clusterin enhancer that improves memory in Alzheimer’s disease mice” (npj Drug Discovery, 2025).

Legend:
BRD4 = BRD4 (Homo sapiens, UniProt O60885); experiment: BRD4 inhibition assay; type: biochemical
[1] = Blood-Brain Barrier (BBB) permeability assay (IAM column, Pm); type: in vitro ADME; conditions: pH 7.4; Pm > 1.0 = CNS+
Description: A liquid chromatography-ultraviolet/visible spectroscopy (LC-UV/Vis) assay was performed on a 1290 Infinity HPLC system (Agilent Technologies) with an HPLC column containing immobilized phosphatidylcholine (IAM.PC.DD, Regis Technologies, Cat#774011, 5 µm 300 Å 100 ×4.6 mm). The HPLC method was a mixture of 6.7 mM phosphate buffer saline (pH 7.4; solvent A) and acetonitrile (solvent B), and a gradient was used for the elution of the compounds (min/%B: 0/20, 20/60, 21/20, 30/20). The retention time of the compound (tr) and void volume time of the column (t0) were recorded. Blood-brain barrier (BBB) permeability (Pm) was calculated using the following equations as described by Yoon et al. (10.1177/1087057105281656):
KIAM = (tr − t0) / t0; Pm = (KIAM / MW^4) x 10^10
Compounds with a Pm > 1.0 were determined to be BBB permeable (CNS + ) at pH 7.

[2] = Liver microsome stability assay; type: in vitro ADME; conditions: pH 7.4; human liver microsomes 0.5 mg/mL, NADPH, 37 °C, up to 120 min; read-out: Microsomal Stability t1/2
Description: An aliquot (1 µL) of test compound (1 mM, 100% DMSO) was added to an aqueous liver microsome solution (1000 µL, PBS pH 7.4, 0.5 mg/mL human liver microsomes (Thermo Fisher Scientific, Cat#HMMPL), 2 mM NADPH, 2 mM MgCl2) and incubated at 37 °C for 120 min. Aliquots (50 µL) of the microsome solution were taken at various time points (0, 5, 10, 15, 30, 60, 90, 120 min) and added to a reaction quenching solution (200 µL 100% Acetonitrile) containing an internal standard. Solutions were clarified by centrifugation (16,000 x g, 5 min), and the supernatants were transferred to new tubes and lyophilized. Samples were reconstituted in 100 µL of 50/50/0.1 (Water/Acetonitrile/Formic Acid) prior to analysis via liquid chromatography-tandem mass spectrometry (LC-MS/MS). Chromatographic peak areas normalized to the internal standard were plotted at each time point and the half-life (t1/2) of compound in liver microsomes was determined by using the trendline equation to calculate the time at which compound abundance was 50% of that at time point 0 (t0).

[3] = Plasma binding assay (dialysis); type: in vitro ADME; conditions: dialysis 4.5 hours, 37 °C
Description: Brain tissue was homogenized in PBS (pH 7.4) (1: 3 weight(mg)/volume(µL)) and the protein concentration was determined using the Micro BCA™ Protein Assay Kit (Thermo Fisher Scientific, Cat#23235). Brain homogenate was clarified and diluted to 20 mg/mL in PBS (pH 7.4). Either brain homogenate or plasma was and added to Slide-A-Lyzer™ MINI Dialysis Devices, 10 K MWCO dialysis cups (Thermo Fisher Scientific, Cat#PI88401) in a 48-well plate containing PBS (500 µL; pH 7.4). 1 µL of 1 mM compound was added to the brain homogenate (Final Concentration: 2 µM compound, 0.5% DMSO) and incubated on a rocker for 4.5 hours at 37 °C. 50 µL of brain homogenate or plasma (within the dialysis cup) and PBS (within the 48-well plate) were transferred to new microcentrifuge tubes containing 400 µL of quenching reagent (100% Acetonitrile) containing internal standard. Solutions were clarified by centrifugation (16,000 x g, 5 min), and the supernatants were transferred to new tubes and lyophilized. Samples were reconstituted in 100 µL of 50/50/0.1 (Water/Acetonitrile/Formic Acid) prior to analysis via liquid chromatography-tandem mass spectrometry (LC-MS/MS). The % of the unbound drug (fu,bound) was calculated using the following equation:
% Bound = [1− (PBS chromatographic peak area/ brain homogenate or plasma chromatographic peak area)] x 100

U-87 MG cells = experiment: Cytotoxicity, MultiTox-Fluor (CNS gliotoxicity); conditions: U-87 MG, up to 50 µM
Description: Cell viability and toxicity were simultaneously assessed using the MultiTox-Fluor Multiplex Cytotoxicity Assay (Cat# PRG9200, Fisher Scientific) according to the manufacturer’s protocol.

sCLU in SH-SY5Y cells = experiment: sCLU levels in SH-SY5Y cells; type: cell-based, human; conditions: SH-SY5Y cells (Fig. S9A)
Description: Cell culture supernatant (2 μL) was added to a 384-well proxy plate preloaded with AlphaLISA HiBlock buffer (2 µL, 1X, CAT#AL004C, Perkin Elmer). Then an anti-sCLU antibody mixture (2 µL, mAb J84, biotinylated (10 nM, Cat# 3717-6-1000, Mabtech) and mAb CLU aa 22-227 (Cat#AF7084, R&D Systems), Acceptor bead conjugated (50 µg/mL, Cat#6772001, Perkin Elmer)) was added and incubated at room temperature for 1 hour. AlphaScreen Streptavidin Donor beads (2 µL, Cat#6760002S, Perkin Elmer) were added, incubated for an additional 30 min in the dark, and the plate was read in an Envision plate reader.

[4] = system: human iPSC-derived neurons; experiment: Neurite outgrowth assay in iPSC-derived human neurons; type: cell-based; conditions: 48 h
Description: The iPSC derived human neurons were provided by the Kornblum lab to be cultured in normal growth conditions (37 °C, 5% CO2) for 2–3 days. Cells were cultured in CELLSTAR uClear 384 well plates, PS, F bottom at seeding density of 5000 cells per well coated overnight with 30 ug/mL poly-D-lysine and 2 ug/mL laminin. Media was replaced every 3 days with Lonza Primary Neuron Basal Medium (PNBM) supplemented with 2 mM L-glutamine, GA-1000, and 2% NSF-1. On day 3, cells were treated with DDL357 in doses ranging from 15,000 nM to 0.76 nM for 48 h. All compounds were diluted in 0.5% DMSO and pinned to 384 well plates with 25 µL of cell media per well with pin size of 250 nL using BioMek FX (Beckman Coulter, CA). After 48 h, media was replaced twice to ensure removal of any remaining compound residues before imaging for neurite outgrowth with Calcein-AM and Hoescht. Imaging was done at UCLA Molecular Screening Shared Resource core facility (MSSR; Robert Damoiseaux, Ph.D., Director) with ImageXPress Confocal (Molecular Devices, CA) using a 10x objective. Total neurite outgrowth was measured via a MetaXpress (Molecular Devices, CA) neurite outgrowth analysis algorithm. […] Mean neurite outgrowth per drug exposure was determined by normalizing to vehicle control (n = 60). […]

SH-SY5Y neuronal cells = experiment: Oxygen consumption rate in SH-SY5Y cells; type: cell-based, human; conditions: 24 h, 8, 40 and 200 nM, dose-dependent

Compound: Cc1sc2c(c1C)C(c1ccc(Cl)cc1)=N[C@@H](CC(=O)OC1COC1)c1nnc(C)n1-2 [DDL-356]
- IC50 (BRD4): 23 nM
- PAMPA Pm [1]: 0.96
- half-life at 1 µM [2]: 75 min
- Plasma Binding [3]: 79 % bound

Compound: Cc1sc2c(c1C)C(c1ccc(Cl)cc1)=N[C@@H](CC(=O)OC1CC1)c1nnc(C)n1-2 [DDL-357]
- IC50 (BRD4): 20 nM
- Ctox (U-87 MG cells): ≥ 50 µM
- PAMPA Pm [1]: 1.66
- half-life at 1 µM [2]: 61 min
- sCLU levels (sCLU in SH-SY5Y cells): increasing sCLU
- Plasma Binding [3]: 88 % bound
- concentrations associated with significantly increased neurite outgrowth [4]: 0.8 to 61.7 nM
- oxygen consumption rate (SH-SY5Y neuronal cells): increased the oxygen consumption rate
